# Measured values from patent US5162328A, “N-[3-[2-(1H-imidazol-1-yl)ethoxy]phenyl]-4-(2-thienyl)-2-pyrimidinamine and pharmacologically acceptable salts” (American Cyanamid Company, priority 1991, dated 1992).
# Values joined by “and” are separate entries in the source; they are usually repeats but may differ in a detail not shown here. Equal values may be shown once.
# Tests used:
# [1] = tested on: immunologically stimulated human basophils; assay: Inhibition of histamine release from immunologically stimulated human basophils; type: cell-based; conditions: Homo sapiens
# Excerpt: The bronchospasm of allergic asthma is a consequence of the release of mediators, such as histamine and slow-reacting substances from mast cells. The role of mediator release in the induction of an asthmatic attack has been fully reviewed and documented; see […]. and Austen, K. F., Bronchial Asthma Mechanisms and Therapeutics, E. B. Weiss, Editor, Little, Brown and Company, Boston, 163, (1976); Lichtenstein, L. M., Asthma-Physiology, Immunopharmacology and Treatment, Second International Symposium, L. M. Lichtenstein and K. F. Austen, Editors, Academic Press, New York, 51, (1979); and Bell, S. C., et al., Annular Reports in Medicinal Chemistry, 14, 51, H. J. Hess, Editor, Academic Press, New York, (1979). The novel compounds of this invention have been tested by the procedure of Lichtenstein, L. M. and Osler, A. G., J. Exp. […] Dissolve 140.3 g of sodium chloride, 7.45 g of Trizma-Tris Pre-Set, Reagent Grade, pH 7.6 at 25° C. (Sigma Chemical Co.) in sufficient water to give a final volume of 2 liters. (Sigma chemical Co.) (30 mg/ml) Made to 0.075M and 0.5M respectively, with calcium chloride dihydrate and magnesium chloride hexahydrate. A 10 ml portion of 10× Tris Buffer and 1.0 ml of human albumin are diluted to 100 ml with water. A 10 ml portion of 10× Tris Buffer, 1.0 ml of human albumin, 0.8 ml of calcium stock and 0.2 ml of magnesium stock are diluted to 100 ml with water. Behring Diagnostics (Generally used at 10 μg protein/ml final concentration). Strength 1:100 (w:v) allergenic extract, Hollister-Stier Labs. Generally this is diluted 1:1000 to 1:10,000 (considering the vial as stock). Interdermal solutions or intramuscular preparations for hyposensitization, Hollister-Stier Labs. The final concentrations used are on the order of 1 PNU/ml. Using four 20 ml heparinized tubes, […] of blood are withdrawn from subjects with known histamine release to anti-IgE, ragweed antigen or other specific allergen. These 80 ml of blood are mixed with 20 ml of saline containing 0.6 g of dextrose and 1.2 g of dextran. The blood is allowed to sediment at room temperature in two 50 ml polycarbonate centrifuge tubes until a sharp interface develops between the red cells and plasma (60-90 minutes). The plasma, containing the leukocytes, (top) layer from each tube, is withdrawn by pipet and transferred to 50 ml polycarbonate tubes. The plasma is centrifuged for 8 minutes at 110× G at 4° C. The supernatant is carefully poured off as completely as possible and the cell button is resuspended in 2-3 ml of Tris-A buffer using a siliconized Pasteur pipet. The resuspension is accomplished by drawing the liquid gently in an out of the pipet, with the tip below the liquid until an even suspension of cells is obtained. […]
# [2] = tested on: passive cutaneous anaphylaxis lesions in the rat; assay: Rat Passive Cutaneous Anaphylaxis Assay (PCA); type: in vivo, rat (male Wistar strain); conditions: for Lesion Area (Low IgE): IgE 25 ng/site; for Lesion Area (Low IgE) / Lesion Area (High IgE): mean ± SD; for Lesion Area (High IgE): IgE 50 ng/site
# Protocol: Solutions made by dissolving 0.50 g in 100 ml of normal saline. Mouse monoclonal IgE (ICN Biochemicals) clone SPE-7 directed against DNP is subdivided into 50 ul aliquots and stored at -70° C. DNP-ovalbumin is made by reacting DNP sulfonic acid with ovalbumin dissolved in saline overnight at room temperature. The resulting solution is dialyzed extensively at 4 C to remove unreacted DNPsulfonic acid and stored as 1 mL aliquots of 100 mg/ml at -70° C. Male Wistar strain rats, certified viral free, weighing 250-300 g are obtained from Hilltop Laboratory Animals and housed, in accordance with AALAC standards, on site for at least one week before use. Forty-eight hours before challenge the rats are shaved on the dorsal surfaces and returned to the cages. Twenty-four hours before challenge the rats are given intradermal injections of 0.1 mL, one on each flank, of saline containing IgE at concentrations ranging from 1000 to 250 ng/mL. These injections give a local dose of 100 to 25 ng IgE. The IgE binds to specific receptors on mast cells in the skin. […] To the Evan's blue dye is added sufficient DNP-ovalbumin to make a 1 mg/ml solution. This allergen containing dye is injected intravenously via a tail vein into the rats at 10 ml/Kg. The Evans' blue binds to plasma albumin and remains in the vascular space under conditions of normal capillary permeability. The allergen, which can diffuse into the extravascular space, binds to the IgE on the surface of the cutaneous mast cells and initiates the immediate hypersensitivity response which leads to the release of histamine by intracellular granules of the mast cell. The histamine causes an increase in capillary permeability which allows plasma proteins including the dye tagged albumin to diffuse into the extracellular space resulting in a blue spot in the skin. The size of the lesion is proportional to the amounts of mediators released. This process reaches an optimum in 30 minutes. Thirty minutes after challenge the rats are euthanized by CO2. The skin is reflected from the back and the lesion areas estimated as the product of the largest diameter of the bluespot and the diameter perpendicular to it. A compound which is a mediator release inhibitor will reduce the spot area. The effectiveness of the compounds is determined by Analysis of Variance of the lesion areas grouped by IgE dose and compound. Compounds are considered active at the P<0.05 level. Table II contains the results of the experiments expressed as the areas of the lesions in mm^2. The control lesions for these experiments are also listed. Because more than one compound at a time is tested, some of the control values are repeated in the table. Table III contains the data expressed as a % of the appropriate control.
# [3] = 2.0 mg/kg PO 2 hrs, hydrochloride
smiles,measurement,setting,value
"Cl.c1cc(Nc2nccc(-c3cccs3)n2)cc(OCCn2ccnc2)c1 [Compound 1, N-[3-[2-(1H-Imidazol-1-yl)ethoxy]phenyl]-4-(2-thienyl)-2-pyrimidinamine hydrochloride]",IC50,[1],100 ± 10 nM
same,Lesion Area (Low IgE),[2]; 0.125 mg/kg PO 2 hrs,87 ± 16 mm^2
same,Lesion Area (High IgE),[2]; 0.125 mg/kg PO 2 hrs,132 ± 20 mm^2
same,Lesion Area (Low IgE),[2]; 0.25 mg/kg PO 2 hrs,92 ± 13 mm^2
same,Lesion Area (High IgE),[2]; 0.25 mg/kg PO 2 hrs,127 ± 19 mm^2
same,Lesion Area (High IgE),"[2]; 1.0 mg/kg PO 2 hrs, hydrochloride",115 ± 14 mm^2 and 100 ± 20 mm^2 and 129 ± 26 mm^2
same,Lesion Area (Low IgE),[2]; 1.5 mg/kg PO 2 hrs,56 ± 22 mm^2
same,Lesion Area (High IgE),[2]; 1.5 mg/kg PO 2 hrs,128 ± 43 mm^2
same,% CONTROL (lesion area),[2]; 1.5 mg/kg PO @ 2 hrs,41.8%
same,Lesion Area (Low IgE),[2]; [3],71 ± 20 mm^2 and 76 ± 14 mm^2
same,Lesion Area (High IgE),[2]; [3],103 ± 5 mm^2 and 119 ± 19 mm^2
same,% CONTROL (lesion area),"[2]; 2 mg/kg PO @ 2 hrs, hydrochloride",56.8% and 43.3%
same,Lesion Area (Low IgE),[2]; 2.5 mg/kg PO 2 hrs,8 ± 15 mm^2
same,Lesion Area (High IgE),[2]; 2.5 mg/kg PO 2 hrs,17 ± 30 mm^2
same,% CONTROL (lesion area),[2]; 2.5 mg/kg PO @ 2 hrs,15.0%
